According to EPA's ToxValDB 9.5 (doi:10.2903/j.efsa.2008.120r):
Converted amounts (≈) assume the structure as drawn.

How the values were obtained:
Typhlodromus pyri = assay: LR50; higher = less toxic; conditions: not reported; mortality
Canidae = conditions: oral, Dog Other, body weight
Anas platyrhynchos = conditions: oral; for LD50: mortality
Tagia sp. = conditions: acute; duration: 14 days; mortality
Daphnia magna = conditions: chronic/long-term; duration: 21 days; reproduction
Mus musculus = conditions: acute; mortality
Coturnix japonica = conditions: reproduction developmental
Colinus virginianus = conditions: oral; for LD50: mortality
Apis mellifera = conditions: acute, mortality
[1] = short-term, duration: 5 days, feed

Question: What does the source list for `COc1cc(OC)nc(NC(=O)NS(=O)(=O)c2ncccc2C(=O)N(C)C)n1` [Nicosulfuron]?
Answer: LR50 (Typhlodromus pyri): 60 g/ha; NOAEL (Canidae; chronic, duration: 1 years): 200 mg/kg-day; NOAEL (Canidae; short-term, duration: 28 days): 200 mg/kg-day; NOAEL (Canidae; subchronic, duration: 90 days): 200 mg/kg-day; NOEL (Anas platyrhynchos; acute, unspecified): 2000 mg/kg-day; LD50 (Anas platyrhynchos; acute, unspecified): > 2000 mg/kg-day; NOEL (Anas platyrhynchos; [1]): 911 mg/kg-day; LD50 (Anas platyrhynchos; [1]): > 911 mg/kg-day; LD50 (Rattus norvegicus; acute, mortality): > 5000 mg/kg-day; NOAEL (Rattus norvegicus; chronic, duration: 2 years, hematological): 199 mg/kg-day; NOAEL (Rattus norvegicus; reproduction developmental, M): 3860 mg/kg-day; NOAEL (Rattus norvegicus; reproduction developmental, mortality): 4400 mg/kg-day; LC50 (Tagia sp.): > 1000 mg/kg; NOEC (Daphnia magna): 5.2 mg/L; LD50 (Mus musculus): > 5000 mg/kg-day; LC50 (Oncorhynchus mykiss; acute, duration: 96 hours, mortality): 65.7 µg/mL (≈ 160 µM); NOEC (Oncorhynchus mykiss; chronic/long-term, duration: 28 days, growth): 10 mg/L; NOEC (Coturnix japonica): 171 mg/kg-day; LD50 (Colinus virginianus; acute, duration: 5 days, diet): > 1600 mg/kg-day; NOEL (Colinus virginianus; acute): 2000 mg/kg-day; LD50 (Colinus virginianus; acute): > 2000 mg/kg-day; NOEL (Colinus virginianus; short-term, duration: 5 days, diet): 1600 mg/kg-day; LD50 (Apis mellifera; dermal): 76 µg/piece; LC50 (Apis mellifera; oral, feed): > 1000 µg/piece
